Data on one compound can be found in paper PMC11984586, “A novel spider toxin as a selective antagonist of the Kv1 subfamily of voltage-gated potassium channels through gating modulation” (The Journal of Biological Chemistry, 2025).

The target of data set [1] is T1, Kv1.1/QM (Kv1.1/E283Q_T286M) (Homo sapiens, UniProt Q09470, E283Q/T286M).
T1 construct: expressed in transfected cells; host or cells: CHO-K1
Kind of data set: Whole-cell patch clamp, Kv1.1 double mutant. The format is cell-based. The following applies: +30 mV, mean ± SD, n = 3–5, read-out: IC50, Kv1.1/QM current (full inhibition). An excerpt: In contrast, differences at positions 347, 355, and 358 between Kv1.3 and Kv1.1 prompted further analysis. To explore whether these discrepancies influence peptide-mediated inhibition, we substituted these residues in Kv1.3 with their homologous counterparts in Kv1.1 and assessed the MrVIII's inhibitory efficacy on these single-point mutants. […] To further investigate this, we introduced double adjacent mutations around Q355 and M358 in Kv1.3 to explore potential synergistic effects on MrVIII's inhibitory activity. […]
CHO-K1 cells were selected for expressing Kv channels due to their lack of endogenous Kv channels, while HEK293 or ND7/23 cells were used for Nav and Cav channel expression. […] After 4 to 6 h transfection, cells were seeded onto poly-lysine–coated coverslips, and 24 to 36 h later, transfected cells were ready for patch-clamp analysis. […]
For Kv current recordings, the bath solution contained (in mM) the following: 140 NaCl, 5 KCl, 1 MgCl2, 2 CaCl2, 10 glucose, and 10 Hepes (pH 7.3, adjusted with NaOH), and the pipette solution contained (in mM) the following: 140 KCl, 2.5 MgCl2, 11 EGTA, and 10 Hepes (pH 7.3, adjusted with KOH). […] Whole cell conductance (G) at each depolarizing voltage (V) was determined using the equation: G = I/(V−Vrev), where I is the current amplitude, and Vrev is the reversal potential. […]
In general terms: In patch-clamp work, channel activity is measured electrically.

The subject of data set [2] is hERG. Kind of data set: Selectivity patch clamp, non-Kv1 channels. The class given is cell-based, human. The following applies: 10 μM MrVIII; n = 3–5. The method, then:
CHO-K1 cells were selected for expressing Kv channels due to their lack of endogenous Kv channels, while HEK293 or ND7/23 cells were used for Nav and Cav channel expression. CHO-K1 cells were cultured in a Dulbecco's modified Eagle's medium/Ham's F-12 nutrient mixture (DMEM-F12) medium, and HEK293T and ND7/23 cells in DMEM medium, all supplemented with 10% fetal bovine serum and 1% penicillin-streptomycin (all from Gibco, Thermo Fisher Scientific, Inc) under standard conditions (37 °C, 5% CO2, and saturated humidity). These cell lines were purchased from Stem Cell Bank, Chinese Academy of Sciences. […] After 4 to 6 h transfection, cells were seeded onto poly-lysine–coated coverslips, and 24 to 36 h later, transfected cells were ready for patch-clamp analysis. […]
For Kv current recordings, the bath solution contained (in mM) the following: 140 NaCl, 5 KCl, 1 MgCl2, 2 CaCl2, 10 glucose, and 10 Hepes (pH 7.3, adjusted with NaOH), and the pipette solution contained (in mM) the following: 140 KCl, 2.5 MgCl2, 11 EGTA, and 10 Hepes (pH 7.3, adjusted with KOH). […] Whole cell conductance (G) at each depolarizing voltage (V) was determined using the equation: G = I/(V−Vrev), where I is the current amplitude, and Vrev is the reversal potential. […] The steady-state fast inactivation of Kv1.3 was measured using a two-pulses protocol. […]

The subject of data set [3] is Cav1.3. Kind of data set: Selectivity patch clamp, non-Kv1 channels. The format is cell-based. The following applies: 10 μM MrVIII; n = 3–5. The method, then:
(§1) CHO-K1 cells were selected for expressing Kv channels due to their lack of endogenous Kv channels, while HEK293 or ND7/23 cells were used for Nav and Cav channel expression. CHO-K1 cells were cultured in a Dulbecco's modified Eagle's medium/Ham's F-12 nutrient mixture (DMEM-F12) medium, and HEK293T and ND7/23 cells in DMEM medium, all supplemented with 10% fetal bovine serum and 1% penicillin-streptomycin (all from Gibco, Thermo Fisher Scientific, Inc) under standard conditions (37 °C, 5% CO2, and saturated humidity). These cell lines were purchased from Stem Cell Bank, Chinese Academy of Sciences. Channel plasmids were cotransfected with pEGFP-N1 (encoding GFP) into the respective cells using lipofectamine 2000, following the manufacturer's instructions (Invitrogen, Thermo Fisher Scientific, Inc.). Nav1.9-GFP plasmid was transfected into ND7/23 using the X-tremeGENE HP DNA Transfection Reagent (Roche). After 4 to 6 h transfection, cells were seeded onto poly-lysine–coated coverslips, and 24 to 36 h later, transfected cells were ready for patch-clamp analysis.
(§2) Patch clamp experiments were conducted using an electrophysiology platform comprising a MultiClamp 700B amplifier and an Axon Digidata 1550 AD/DA convertor (Axon Instruments). Data acquisition was performed with pClamp 10.5 software (Axon Instruments). All experiments were performed at room temperature.

Data set [4] deals with Cav2.2. As to the kind of experiment: Selectivity patch clamp, non-Kv1 channels. The class given is cell-based. As to conditions: 10 μM MrVIII; n = 3–5. The method, then: as §1, §2
For data set [5], the system named is Cav3.2-3.3. Kind of data set: Selectivity patch clamp, non-Kv1 channels. The format is cell-based. As to conditions: 10 μM MrVIII; n = 3–5. The method, then:
as §1, §2

Data set [6] relates to Nav1.2. Kind of data set: Selectivity patch clamp, non-Kv1 channels. The class given is cell-based. The following applies: 10 μM MrVIII; n = 3–5. The method, then: as §1, §2
The test system of data set [7] is Nav1.4-1.5. As to the kind of experiment: Selectivity patch clamp, non-Kv1 channels. The format is cell-based. As to conditions: 10 μM MrVIII; n = 3–5. The method, then:
as §1, §2

The test system of data set [8] is Nav1.7-1.9. Kind of data set: Selectivity patch clamp, non-Kv1 channels. The format is cell-based. As to conditions: 10 μM MrVIII; n = 3–5. The method, then: as §1, §2

The structures appear in SMILES notation. Bridge positions count the residues as written; N and C are the ends. Peptide text beside a SMILES is read from it.

T1 sequence (Q09470 whole entry E283Q/T286M): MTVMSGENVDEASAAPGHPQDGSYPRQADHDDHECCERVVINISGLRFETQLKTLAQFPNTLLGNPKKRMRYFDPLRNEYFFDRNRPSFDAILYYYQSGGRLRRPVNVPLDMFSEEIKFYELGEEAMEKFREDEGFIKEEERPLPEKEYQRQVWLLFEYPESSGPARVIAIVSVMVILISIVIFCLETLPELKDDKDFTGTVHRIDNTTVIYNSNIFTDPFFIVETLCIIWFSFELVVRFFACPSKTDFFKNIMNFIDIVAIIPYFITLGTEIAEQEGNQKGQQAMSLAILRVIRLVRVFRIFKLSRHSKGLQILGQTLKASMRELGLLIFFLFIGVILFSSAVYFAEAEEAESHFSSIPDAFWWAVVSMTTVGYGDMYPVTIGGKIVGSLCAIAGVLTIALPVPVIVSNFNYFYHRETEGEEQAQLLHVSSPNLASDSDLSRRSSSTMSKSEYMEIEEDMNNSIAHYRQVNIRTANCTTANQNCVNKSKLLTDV

Consider `CC[C@H](C)[C@@H]1NC(=O)[C@H](Cc2ccc(O)cc2)NC(=O)[C@H](CCC(N)=O)NC(=O)[C@@H]2CCCN2C(=O)[C@@H]2CSSC[C@H](NC(=O)[C@H](C)NC(=O)[C@H](CO)NC(=O)[C@H](CCC(=O)O)NC(=O)[C@H](CCC(=O)O)NC(=O)[C@@H](N)[C@@H](C)O)C(=O)NCC(=O)NCC(=O)N[C@@H](Cc3ccccc3)C(=O)N[C@@H](CC(N)=O)C(=O)N[C@@H](C)C(=O)N[C@@H](CCCNC(=N)N)C(=O)N[C@H]3CSSC[C@H](NC1=O)C(=O)N[C@@H](CCCCN)C(=O)NCC(=O)N[C@@H](Cc1c[nH]c4ccccc14)C(=O)N[C@@H](CCCNC(=N)N)C(=O)N[C@@H]([C@@H](C)O)C(=O)N[C@@H](CCCCN)C(=O)N[C@@H](CCCNC(=N)N)C(=O)N[C@H](C(=O)N[C@@H](CC(C)C)C(=O)N[C@@H](CC(N)=O)C(=O)N1CCC[C@H]1C(=O)O)CSSC[C@H](NC(=O)[C@H](CCCCN)NC(=O)[C@H](Cc1c[nH]cn1)NC(=O)[C@H](CC(C)C)NC(=O)[C@@H]1CCCN1C3=O)C(=O)N2` [MrVIII] (H-TEESACGGFNARCPLHKCCPQYICKGWRTKRCLNP-OH; disulfide 6-19, 13-24, 18-32; N-terminus and C-terminus assumed), for which, in data set [1], the IC50 was found to be 7.7 ± 5.3 nM. The “inhibition of hERG current” value in data set [2] is “did not remarkably inhibit”. The “inhibition of Cav1.3 current” value in data set [3] was “did not remarkably inhibit”. For the same compound, the “inhibition of Cav2.2 current” value in data set [4] is “did not remarkably inhibit”. For the same compound, the “inhibition of Cav3.2-3.3 currents” value in data set [5] is reported as “did not remarkably inhibit”. The “inhibition of Nav1.2 current” value in data set [6] is “did not remarkably inhibit”. Moreover, in data set [7], the “inhibition of Nav1.4-1.5 currents” value is “did not remarkably inhibit”. For the same compound, in data set [8], the “inhibition of Nav1.7-1.9 currents” value is “did not remarkably inhibit”.
